Measured values as given in PubChem BioAssay (NCI).
Values joined by “and” are separate entries in the source; they are usually repeats but may differ in a detail not shown here. Equal entries are not always repeated.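 Five concentrations, 48 hours, 96-well plates. Here, GI50 denotes the concentration required for 50% inhibition of growth. At the TGI there is no net growth.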

Key:
Assay in all cases: NCI anticancer screen, dose series, 48 h
HCT-15 colon = test system: HCT-15 colon
HT29 colon = test system: HT29 colon
MALME-3M melanoma = test system: MALME-3M melanoma
NCI-H226 lung = test system: NCI-H226 lung
NCI-H522 lung = test system: NCI-H522 lung
SF-295 CNS = test system: SF-295 CNS
SK-MEL-5 melanoma = test system: SK-MEL-5 melanoma
SK-OV-3 ovarian = test system: SK-OV-3 ovarian
SR leukemia = test system: SR leukemia
SW-620 colon = test system: SW-620 colon

Compound	GI50 (HCT-15 colon) [µM]	TGI (HCT-15 colon)	GI50 (HT29 colon) [µM]	TGI (HT29 colon)	GI50 (MALME-3M melanoma) [µM]	TGI (MALME-3M melanoma)	GI50 (NCI-H226 lung) [µM]	TGI (NCI-H226 lung)	GI50 (NCI-H522 lung) [µM]	TGI (NCI-H522 lung)	GI50 (SF-295 CNS) [µM]	TGI (SF-295 CNS)	GI50 (SK-MEL-5 melanoma) [µM]	TGI (SK-MEL-5 melanoma)	GI50 (SK-OV-3 ovarian) [µM]	TGI (SK-OV-3 ovarian)	GI50 (SR leukemia) [µM]	TGI (SR leukemia)	GI50 (SW-620 colon) [µM]	TGI (SW-620 colon)
COc1ccc2c(c1)c(-c1ccc(-c3cn(S(=O)(=O)c4ccccc4)c4ccc(OC)cc34)s1)cn2S(=O)(=O)c1ccccc1	> 100	> 100 µM	> 100	> 100 µM	> 100	> 100 µM	> 100	> 100 µM	> 100	> 100 µM	> 100	> 100 µM	> 100	> 100 µM	> 100	> 100 µM	> 100	> 100 µM	> 100	> 100 µM
O=C(Nc1ccccc1O)c1cccc(NC2=C(Cl)C(=O)N(Cc3ccccc3)C2=O)c1	2.02	5.13 µM	7.05	> 100 µM	0.488	9.19 µM	3.7	11.5 µM	9.02	28.5 µM	4.46	12.5 µM	6.66	14.4 µM	12.8	31.5 µM	0.583	2.57 µM	2.12	5.06 µM
CC[C@@H](C(=O)[C@@H](C)[C@@H](O)[C@H](C)[C@@H]1O[C@@H]([C@@H](CC)C(=O)O)CC[C@@H]1C)C1O[C@]2(C=CC(=O)[C@]3(CC[C@@](C)([C@H]4CC[C@](O)(CC)[C@H](C)O4)O3)O2)[C@H](C)C[C@@H]1C (some centres undefined)	0.644	14.3 µM	0.279	16.2 µM	0.163	0.774 µM	1.06	9.77 µM	0.052	3.64 µM	1.21	12.8 µM	0.0658	0.232 µM	3.7	16 µM	0.0969		0.827	12.8 µM
CC(C)(C)NC(C1=CC(C)(C)c2ccccc2C1=O)c1ccccc1 (centres undefined)	1.29	2.68 µM	1.54	2.88 µM	1.34	2.97 µM	1.42	3.17 µM	1.1	2.41 µM	5.07	17.8 µM	1.52	2.84 µM	3.04	12.1 µM	0.293	1.74 µM	1.53	2.92 µM
CCN(CC)CCCC(C)Nc1cnc(C(=O)Nc2ccc(Cl)c3cccnc23)cn1 (centres undefined)	2.29	6.3 µM	1.33	3.26 µM	1.82	3.3 µM	4.73	20.7 µM	2.07	4.34 µM	2.11	4.92 µM	1.8	3.31 µM	12.9	26 µM	1.18	4.12 µM	2.09	4.74 µM
CCC(C)(C)C(=O)O[C@H]1C[C@@H](C)C=C2C=C[C@H](C)[C@H](CC[C@@H]3C[C@@H](O)CC(=O)O3)[C@H]21	2.15	19 µM and > 30 µM		20.2 µM and 21.3 µM	13.9	30.5 µM	2.32	9.27 µM	0.826	5.26 µM	0.434	8.03 µM and 2.61 µM	2.23	7.87 µM	7.56	21 µM and > 30 µM	1.72	13.1 µM and > 30 µM	3.58	16.6 µM and > 30 µM
COc1ccc2c(c1)C(=O)/C(=C/c1cccc(OCC(=O)Nc3nc4c(s3)CCCC4)c1)O2	1.54	3.19 µM	0.642	1.8 µM	0.8	2.86 µM	11.3	42.1 µM	0.704	2.25 µM	3.7	15.8 µM	6.08	19.4 µM	11.8	25.1 µM	0.156	0.351 µM	0.805	2.07 µM
Cc1cc(O)cc2oc(=O)c3c(O)cc(O)cc3c12		45.4 µM		> 100 µM		> 100 µM		91.8 µM		30.4 µM		63.6 µM		> 100 µM		45.5 µM		> 100 µM		49.9 µM
COC(=O)NC1C(C)OC(OC2C/C=C(/C)C3C=CC4C(OC5CC(OC6CC(O)C(OC7CC(O)C(OC)C(C)O7)C(C)O6)C(O)C(C)O5)C(C)CC(C)C4C3(C)/C(O)=C3\C(=O)OC4(CC(C)C(CO)=CC4/C=C\2C)C3=O)CC1(C)[N+](=O)[O-] (centres undefined)		50 µM and 40.8 µM	8.34	15.9 µM and 35.9 µM	8.88	15.8 µM and 17.8 µM	10	22.3 µM and 31.6 µM		11.7 µM and 22.7 µM		50 µM and 38.9 µM	10.9	18.7 µM and 33.2 µM	10.3	50 µM and 20.9 µM	23.2	50 µM and > 100 µM		19.7 µM and 35.2 µM
Cc1c(Cl)ccc2c1NC(=O)C2(O)C(C(=O)c1ccccc1)c1ccccc1 (centres undefined)		> 100 µM		> 100 µM		> 100 µM		> 100 µM		93.7 µM		92.6 µM		60 µM		> 100 µM		60.2 µM		> 100 µM
